# Assay results taken from PMC11491487 (Nature Communications, 2024).
# Several values for one entry are separate records, joined by “and”; a condition that tells them apart may be missing. Equal entries are not always repeated.
# Key:
# [1] = system: Drosophila melanogaster RyR G4915E; test: Bioassay of gene-edited Drosophila melanogaster (feeding, mortality after 24 h); type: in vivo; details: 24 h
# [2] = system: Drosophila melanogaster RyR M4758I; test: as above; type: in vivo; details: 24 h
compound,measurement,setting,value
"Cc1cc(C(F)(C(F)(F)F)C(F)(F)F)ccc1NC(=O)c1cccc(I)c1C(=O)NC(C)(C)CS(C)(=O)=O [FLU, flubendiamide]",death rate,[1]; FLU 1.000 uM,0%
same,death rate,[1]; FLU 3.333 uM,0%
same,death rate,[1]; FLU 10.000 uM,0%
same,death rate,[1]; FLU 33.333 uM,0%
same,death rate,[1]; FLU 100.000 uM,0%
same,death rate,[1]; FLU 333.333 uM,0%
same,death rate,[2]; FLU 0.033 uM,0%
same,death rate,[2]; FLU 0.100 uM,0% and 10%
same,death rate,[2]; FLU 0.333 uM,10%
same,death rate,[2]; FLU 1.000 uM,10% and 20%
same,death rate,[2]; FLU 3.333 uM,20% and 30%
same,death rate,[2]; FLU 10.000 uM,50%
same,death rate,[2]; FLU 33.333 uM,60% and 70%
same,death rate,[2]; FLU 100.000 uM,100%
same,death rate,[2]; FLU 333.333 uM,100%
